{"source": "patent US20240024403A1", "about": "“Compositions and Methods for Managing Weight” (Unigen, Inc., priority 2012, published 2024)", "key": {"[1]": {"experiment": "High fat diet induced obesity (DIO) rat model", "type": "in vivo, Spraue-Dawley rats", "settings": "for Total Body Weight: in g (unit assumed)", "description": "Male Spraue-Dawley rats, age 4-6 weeks (OrientBio, Inc.; Seongnam, Korea) were housed individually in Polycarbonate cages in a room with a 12 hr:12 hr light-dark cycle and an ambient temperature of 24° C. All the rats were fed a commercial chow diet for 1 week after arrival in the animal facility. Rats were then divided into normal and obesity groups and fed with normal diet (ND) and high fat diets (HFD) respectively. The HFD group was divided into multiple treatment groups: a high fat diet vehicle group (HFD), an orlistat (purchased as OTC drug Alli®) positive control treatment group (ORI, 80 mg/kg of animal weight, 2 times/day). In some examples, sibutramine was used as a positive control (SIB, 3 mg/kg for rat studies and […] for mice studies).\nBody weight was measured once or twice per week and feed intake was measured twice per week. Body weight gain was determined for each study group by measurement of the body weight difference for each study group between each successive week of the study. At the end of the experimental period, following a 12-h fasting period, the animals were anesthetized with ether, and blood was drawn from the abdominal vein. Liver and kidney and adipose tissues (epididymal, retroperitoneal, perirenal adipose tissues) were removed from each animal, rinsed with physiological saline, and weighted. Serum concentrations of glucose, total cholesterol and LDL-cholesterol were determined using automatic analyzer (INTEGRA 400, Roche, Germany). Statistical significance of test results was performed by Student's t-test."}, "[2]": {"system": "ghrelin", "experiment": "Plasma active ghrelin level in DIO mice (ELISA)", "type": "in vivo", "description": "Obese mice were treated with various three component compositions to test the anti-obesity and appetite effects of such compositions. Three component Composition 1 (Magnolia:Morus:Yerba Mate) produced according to the Example 38, three component Composition 2 (Magnolia:Morus:Mutamba) produced according to the Example 42, three component Composition 3 (Morus: Rosemary:Yerba Mate) produced according to the Example 39, and three component Composition 9 (Morus:Rosemary:Areca) produced according to the Example 41, were each separately administrated orally to DIO mice as described in the Example 48. The high fat diet (HFD) mice were divided into multiple treatment groups with a total of 10 animals per group. The mice were treated with one of the following: Composition 1 (1300 mg/kg/day), Composition 2 (1300 mg/kg/day), Composition 3 (1700 mg/kg/day), or Composition 9 (1700 mg/kg/day). Control groups included a normal diet group given vehicle only (ND, negative control), a high fat diet group given vehicle only (HFD, negative control), an orlistat group (ORI, 40 mg/kg, 2 times/day, positive control), and a sibutramine group (10 mg/kg, 1 time/day, positive control). Body weight and feed intake were measured daily for 2 weeks after treatment and then twice a week until the end of the 7 week study. At week 2 and week 7 after treatment, mice were fasted for 16 hours and then five animals were examined to measure plasma concentrations of leptin and ghrelin. Leptin and ghrelin levels were measured by using commercial ELISA kits specific for leptin or ghrelin (Millipore Co., Billerica, MA) according to the manufacturer's instructions. Measurements were taken using a microplate reader (Victor™ X3, PerkinElmer Inc., USA) and analyzed with PerkinElmer 2030 workstation computer software."}, "[3]": {"settings": "SIB 3 mg/kg, DIO rats, blood at end of study"}, "[4]": {"settings": "SIB 3 mg/kg, rats fed a high fat diet"}, "[5]": {"settings": "SIB 3 mg/kg, rats fed a high fat diet, 42 days"}}, "data": [{"smiles": "CC(C)CC(N(C)C)C1(c2ccc(Cl)cc2)CCC1", "note": "(stereo not shown) [SIB, sibutramine]", "values": [{"measurement": "Fasting Glucose", "setting": "[1]; [3]", "result": 136.00, "unit": "mg/dL"}, {"measurement": "T-chol", "setting": "[1]; [3]", "result": 106.60, "unit": "mg/dL"}, {"measurement": "Triglyceride", "setting": "[1]; [3]", "result": 41.10, "unit": "mg/dL"}, {"measurement": "Fat Deposit Weight: Epididymal Fat", "setting": "[1]; [4]", "result": 6.698}, {"measurement": "Fat Deposit Weight: Perirenal Fat", "setting": "[1]; [4]", "result": 1.562}, {"measurement": "Fat Deposit Weight: Retroperitoneal Fat", "setting": "[1]; [4]", "result": 3.190}, {"measurement": "Fat Deposit Weight: Total Fat", "setting": "[1]; [4]", "result": 11.450}, {"measurement": "Food Efficiency Ratio (FER)", "setting": "[1]; [5]", "result": 0.155}, {"measurement": "Food Intake", "setting": "[1]; [5]", "result": 13.880, "unit": "g/day"}, {"measurement": "Weight Gain", "setting": "[1]; [5]", "result": 2.160, "unit": "g/day"}, {"measurement": "Total Body Weight", "setting": "[1]; day 0, SIB 3 mg/kg, DIO rats", "result": 364.15}, {"measurement": "Total Body Weight", "setting": "[1]; day 1, SIB 3 mg/kg, DIO rats", "result": 368.06}, {"measurement": "Weight Gain", "setting": "[1]; day 1 vs day 0, SIB 3 mg/kg, DIO rats", "result": 3.91}, {"measurement": "Total Body Weight", "setting": "[1]; day 2, SIB 3 mg/kg, DIO rats", "result": 356.78}, {"measurement": "Weight Gain", "setting": "[1]; day 2 vs day 0, SIB 3 mg/kg, DIO rats", "result": "−7.37"}, {"measurement": "Total Body Weight", "setting": "[1]; day 3, SIB 3 mg/kg, DIO rats", "result": 357.21}, {"measurement": "Weight Gain", "setting": "[1]; day 3 vs day 0, SIB 3 mg/kg, DIO rats", "result": "−6.94"}, {"measurement": "Total Body Weight", "setting": "[1]; day 4, SIB 3 mg/kg, DIO rats", "result": 358.78}, {"measurement": "Weight Gain", "setting": "[1]; day 4 vs day 0, SIB 3 mg/kg, DIO rats", "result": "−5.37"}, {"measurement": "Total Body Weight", "setting": "[1]; day 7, SIB 3 mg/kg, DIO rats", "result": 368.11}, {"measurement": "Weight Gain", "setting": "[1]; day 7 vs day 0, SIB 3 mg/kg, DIO rats", "result": 3.96}, {"measurement": "Total Body Weight", "setting": "[1]; day 10, SIB 3 mg/kg, DIO rats", "result": 377.69}, {"measurement": "Weight Gain", "setting": "[1]; day 10 vs day 0, SIB 3 mg/kg, DIO rats", "result": 13.54}, {"measurement": "Total Body Weight", "setting": "[1]; day 14, SIB 3 mg/kg, DIO rats", "result": 388.70}, {"measurement": "Weight Gain", "setting": "[1]; day 14 vs day 0, SIB 3 mg/kg, DIO rats", "result": 24.55}, {"measurement": "Total Body Weight", "setting": "[1]; day 18, SIB 3 mg/kg, DIO rats", "result": 395.38}, {"measurement": "Weight Gain", "setting": "[1]; day 18 vs day 0, SIB 3 mg/kg, DIO rats", "result": 31.23}, {"measurement": "Total Body Weight", "setting": "[1]; day 21, SIB 3 mg/kg, DIO rats", "result": 407.06}, {"measurement": "Weight Gain", "setting": "[1]; day 21 vs day 0, SIB 3 mg/kg, DIO rats", "result": 42.91}, {"measurement": "Total Body Weight", "setting": "[1]; day 24, SIB 3 mg/kg, DIO rats", "result": 414.91}, {"measurement": "Weight Gain", "setting": "[1]; day 24 vs day 0, SIB 3 mg/kg, DIO rats", "result": 50.75}, {"measurement": "Total Body Weight", "setting": "[1]; day 28, SIB 3 mg/kg, DIO rats", "result": 425.99}, {"measurement": "Weight Gain", "setting": "[1]; day 28 vs day 0, SIB 3 mg/kg, DIO rats", "result": 61.84}, {"measurement": "Total Body Weight", "setting": "[1]; day 31, SIB 3 mg/kg, DIO rats", "result": 432.32}, {"measurement": "Weight Gain", "setting": "[1]; day 31 vs day 0, SIB 3 mg/kg, DIO rats", "result": 68.17}, {"measurement": "Total Body Weight", "setting": "[1]; day 35, SIB 3 mg/kg, DIO rats", "result": 442.55}, {"measurement": "Weight Gain", "setting": "[1]; day 35 vs day 0, SIB 3 mg/kg, DIO rats", "result": 78.40}, {"measurement": "Total Body Weight", "setting": "[1]; day 38, SIB 3 mg/kg, DIO rats", "result": 447.66}, {"measurement": "Weight Gain", "setting": "[1]; day 38 vs day 0, SIB 3 mg/kg, DIO rats", "result": 83.51}, {"measurement": "Total Body Weight", "setting": "[1]; day 42, SIB 3 mg/kg, DIO rats", "result": 454.96}, {"measurement": "Weight Gain", "setting": "[1]; day 42 vs day 0, SIB 3 mg/kg, DIO rats", "result": 90.81}, {"measurement": "blood biochemistry parameters vs HFD group", "setting": "[1]; sibutramine 3 mg/kg", "result": "no statistically significant changes compared to the HFD group for any of the measured endpoints"}, {"measurement": "body weight gain vs HFD group", "setting": "[1]; sibutramine 3 mg/kg", "result": "statistically significant decreases in body weight gains from day 2 to completion of the study on day 42"}, {"measurement": "organ and fat pad weights vs HFD group", "setting": "[1]; sibutramine 3 mg/kg", "result": "statistically significant decreases in all categories of fat measurement"}, {"measurement": "total body weight vs HFD group", "setting": "[1]; sibutramine 3 mg/kg", "result": "statistically significant reduction in body weight at day 2 through the remainder of the study (day 42)"}, {"measurement": "weight gain per day, food intake per day, food efficiency ratio (FER) vs HFD group", "setting": "[1]; sibutramine 3 mg/kg", "result": "statically lower values than the HFD group for Weight Gain per day, Food Intake per day, and Food Efficiency Ratio"}, {"measurement": "Active Ghrelin (pg/ml) 2-week", "setting": "[2]; DIO mice plasma, 2-week treatment", "result": 1001.3, "unit": "pg/mL"}, {"measurement": "Active Ghrelin (pg/ml) 7-week", "setting": "[2]; DIO mice plasma, 7-week treatment", "result": 600.1, "unit": "pg/mL"}, {"measurement": "active ghrelin level vs HFD group", "setting": "[2]; week 2 and week 7, orlistat 40 mg/kg 2 times/day, sibutramine 10 mg/kg 1 time/day", "result": "no effect on active ghrelin levels at either week 2 or week 7"}]}]}
